One block for each molecule: values may come before it.
Columns and labels:
HRP [1] = biological target: T1, HRP (Armoracia rusticana, UniProt P00433); assay: CPA as enhancer of the luminol-H2O2-HRP reaction, Amerlite microplate reader (Example 9); format: biochemical, horseradish
T1 construct: purchased Sigma Chemical Co
T1 sequence (P00433 31-338): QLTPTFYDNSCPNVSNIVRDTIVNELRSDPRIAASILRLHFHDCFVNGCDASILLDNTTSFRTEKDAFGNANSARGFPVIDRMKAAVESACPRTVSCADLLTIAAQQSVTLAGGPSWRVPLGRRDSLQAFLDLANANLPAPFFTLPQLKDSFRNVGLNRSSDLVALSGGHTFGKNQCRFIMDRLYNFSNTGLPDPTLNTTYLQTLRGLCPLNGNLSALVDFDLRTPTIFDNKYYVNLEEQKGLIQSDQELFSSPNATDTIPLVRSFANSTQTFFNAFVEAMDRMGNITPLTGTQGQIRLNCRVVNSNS
Experimental: (§1) PBBA was added in various concentrations (range 0.05µg to 0.5µg) to a luminol-H2O2 reaction in the presence and absence of HRP. The luminol-hydrogen peroxide reagent was prepared as follows: sodium luminol (12.5mg) was dissolved in 50ml of Tris buffer (0.1mol/l, pH 8.6), and 15.5µl of hydrogen peroxide (30% w/v) was mixed with 0.5ml of Tris buffer (0.lmol/l, pH 8.6). These two solutions were combined and protected from light. The luminol-hydrogen peroxide reagent (100µl of a 1:10 dilution) was added to a cuvette together with either 10µl of HRP Type VI A (HRP, Sigma Chemical Co., 1:50,000 dilution) or as a control 10µl of Tris Buffer (0.1mol/l, pH 8.6), and various amounts of PBBA (Aldrich Chemical Co.), range 0.05µg-0.5µg in 0.1mol/l Tris, pH 8.6). The reagents were mixed and the light emission recorded after 5 minutes on a Berthold Biolumat LB9500C.
The experiment of Example 1 was repeated using CPA in place of PBBA. Various dilutions of CPA (Cookson Chemicals Ltd., Southampton, UK, […] in 1 mg/ml Tris buffer, pH 8.6) were used. […] "Amerlite" is a Registered Trade Mark.

[2] = biological target: T2, horseradish peroxidase Type VIA (Armoracia rusticana, UniProt P00433); assay: Enhanced chemiluminescent assay for peroxide with 4-biphenylboronic acid (Example 8a); format: biochemical; settings: 10µl enhancer (1:20 dilution of 1mg/ml)
T2 construct: purchased Sigma Chemical Co
T2 sequence (P00433 31-338): T1 sequence (P00433 31-338)
Experimental: The assay reagent consisted of the following reagents: 10µl 4-biphenylboronic acid (1:20 dilution of a 1mg/ml stock in DMSO), 10µl horseradish peroxidase (1:500,000 dilution of a 1mg/ml stock Type VIA in 0.1 mol/l Tris buffer pH 8.6) and 100µl luminol (0.025 g/l in 0.1 mol/l Tris buffer pH 8.6). These were mixed together and the light emission measured. A 10µl sample of a hydrogen peroxide solution (dilutions of a stock, 31µl 30% w/v hydrogen peroxide/ml in Tris buffer) was added, the contents of the assay tube mixed and the light emission recorded.
From Table 9 it can be seen that there was a dose-dependent increase in light output up to 2.4µmoles of peroxide.

HRP Type VIA [3] = biological target: T3, HRP Type VIA (Armoracia rusticana, UniProt P00433)
T3 sequence (P00433 31-338): T1 sequence (P00433 31-338)

[4] = biological target: T2, horseradish peroxidase Type VIA; assay: Enhanced chemiluminescent assay for luminol with 4-biphenylboronic acid (Example 8b); format: biochemical; settings: 10µl enhancer (1:20 dilution of 1mg/ml)
Experimental: The assay reagent consisted of the following reagents: 10µl 4-biphenylboronic acid (1:20 dilution of a 1mg/ml stock in DMSO), 10µl horseradish peroxidase (1:500,000 dilution of a lmg/ml stock Type VIA in 0.1 mol/l Tris buffer pH 8.6) and 100µl hydrogen peroxide solution (31µl 30% w/v hydrogen peroxide diluted in 100ml Tris buffer). These were mixed together and the light emission measured. A 10µl sample of a luminol solution (dilutions of a 0.25g/l in 0.1 mol/l Tris buffer pH 8.6 stock) was added, the contents of the assay tube mixed and the light emission recorded.
From Table 10 it can be seen that there was a dose-dependent increase in light output at all concentrations of luminol tested.

HRP Type VIA [5] = biological target: T3, HRP Type VIA; assay: Effect of organoboron compounds on the luminol-hydrogen peroxide-HRP chemiluminescent reaction (Example 2); format: biochemical, horseradish; parameters: purchased Sigma Chemical Co; settings: test
Experimental: The stock solution of HRP Type VIA (1mg/ml) and luminol-hydrogen peroxide reagent were prepared as described previously. Luminol-hydrogen peroxide (100µl, 1:10 dilution) was mixed with either 10µl of HRP (1:50,000 dilution) or, 10µl of Tris buffer (0.1mol/l, pH 8.6). […] A control without any test compound was run in parallel.
The control consisted of buffer in place of the compound under test as an enhancer. […]

HRP [6] = biological target: T1, HRP; assay: PIBA enhancement of the HRP-luminol-peroxide reaction (Example 7); format: biochemical, horseradish; settings: for Signal: Background ratio: at 1 minute
Experimental: as §1, with “The reagents were mixed and the light emission recorded after 5 minutes on a Berthold Biolumat LB9500C.” left out
The experiment of Example 1 was repeated using PIBA in place of PBBA. Various dilutions of PIBA (Cookson Chemicals Ltd., Southampton, UK, 1mg/ml stock in DMSO) in Tris buffer were used. […]

Signal (no HRP) (HRP [1]; CPA 0.01 µg): 0.094 | Signal (with HRP) (HRP [1]; CPA 0.01 µg): 0.41 | Signal: Background ratio (HRP [1]; CPA 0.01 µg): 4.4 | Signal (no HRP) (HRP [1]; CPA 0.02 µg): 0.09 | Signal (with HRP) (HRP [1]; CPA 0.02 µg): 0.46 | Signal: Background ratio (HRP [1]; CPA 0.02 µg): 5.1 | Signal (no HRP) (HRP [1]; CPA 0.05 µg): 0.09 | Signal (with HRP) (HRP [1]; CPA 0.05 µg): 0.68 | Signal: Background ratio (HRP [1]; CPA 0.05 µg): 7.6 | Signal (no HRP) (HRP [1]; CPA 0.1 µg): 0.09 | Signal (with HRP) (HRP [1]; CPA 0.1 µg): 1.23 | Signal: Background ratio (HRP [1]; CPA 0.1 µg): 14.2 | Signal (no HRP) (HRP [1]; CPA 0.2 µg): 0.08 | Signal (with HRP) (HRP [1]; CPA 0.2 µg): 2.37 | Signal: Background ratio (HRP [1]; CPA 0.2 µg): 28.2 | Signal (no HRP) (HRP [1]; CPA 0.5 µg): 0.07 | Signal (with HRP) (HRP [1]; CPA 0.5 µg): 4.57 | Signal: Background ratio (HRP [1]; CPA 0.5 µg): 63.4 | Signal (no HRP) (HRP [1]; CPA 1.0 µg): 0.06 | Signal (with HRP) (HRP [1]; CPA 1.0 µg): 5.58 | Signal: Background ratio (HRP [1]; CPA 1.0 µg): 93.0 | Signal (no HRP) (HRP [1]; CPA 10 µg): 0.02 | Signal (with HRP) (HRP [1]; CPA 10 µg): 2.49 | Signal: Background ratio (HRP [1]; CPA 10 µg): 124.9 | Signal (no HRP) (HRP [1]; CPA 20 µg): 0.003 | Signal (with HRP) (HRP [1]; CPA 20 µg): 0.88 | Signal: Background ratio (HRP [1]; CPA 20 µg): 43.9
Molecule: O=C(O)C=Cc1ccc(B(O)O)cc1 [CPA, 4-(2-carboxyethenyl)phenylboronic acid]

Signal (no HRP) (HRP Type VIA [5]; 5µl of 1mg/ml compound): 16,246 | Signal (with HRP) (HRP Type VIA [5]; 5µl of 1mg/ml compound): 128,274 | Signal: Background ratio (HRP Type VIA [5]; 5µl of 1mg/ml compound): 7.9
Molecule: OB(O)c1ccc(Cl)cc1Cl [Compound 5002, 2,4-dichlorophenylboronic acid]

Light emission at 1 minute, Background (HRP [6]; PIBA 0.01 µg): 12,862 | Light emission at 1 minute, Signal (HRP [6]; PIBA 0.01 µg): 78,419 | Signal: Background ratio (HRP [6]; PIBA 0.01 µg): 6.1 | Light emission at 1 minute, Background (HRP [6]; PIBA 0.1 µg): 13,221 | Light emission at 1 minute, Signal (HRP [6]; PIBA 0.1 µg): 74,487 | Signal: Background ratio (HRP [6]; PIBA 0.1 µg): 7.1 | Light emission at 1 minute, Background (HRP [6]; PIBA 1 µg): 10,282 | Light emission at 1 minute, Signal (HRP [6]; PIBA 1 µg): 324,312 | Signal: Background ratio (HRP [6]; PIBA 1 µg): 31.5 | Light emission at 1 minute, Background (HRP [6]; PIBA 10 µg): 5,517 | Light emission at 1 minute, Signal (HRP [6]; PIBA 10 µg): 540,760 | Signal: Background ratio (HRP [6]; PIBA 10 µg): 98 | Light emission at 1 minute, Background (HRP [6]; PIBA 20 µg): 3,837 | Light emission at 1 minute, Signal (HRP [6]; PIBA 20 µg): 135,065 | Signal: Background ratio (HRP [6]; PIBA 20 µg): 35.2
Molecule: OB(O)c1ccc(I)cc1 [PIBA, para-iodophenylboronic acid]

More lines, now with the values behind:

Molecule: OB(O)c1ccc(-c2ccccc2)cc1 [Compound 1011, 4-biphenylboronic acid]
Light emission at 5 minutes ([2]; Hydrogen peroxide 0 µmoles): 525 | Light emission at 5 minutes ([2]; Hydrogen peroxide 0.00024 µmoles): 659 | Light emission at 5 minutes ([2]; Hydrogen peroxide 0.0024 µmoles): 1,500 | Light emission at 5 minutes ([2]; Hydrogen peroxide 0.024 µmoles): 40,682 | Light emission at 5 minutes ([2]; Hydrogen peroxide 0.24 µmoles): 584,638 | Light emission at 5 minutes ([2]; Hydrogen peroxide 2.4 µmoles): 620,551 | Light emission at 5 minutes ([2]; Hydrogen peroxide 24 µmoles): 339,291 | (a) Decrease in background (without HRP with test cpd.) (HRP Type VIA [3]): Y | (b) Increase in signal (with HRP, with test cpd.) (HRP Type VIA [3]): Y | (c) Increase in signal: background ratio (HRP Type VIA [3]): Y (key: Column (c) shows whether there was an increase in the signal:background ratio by over 25% of the control value (Y = yes; N = no) | Light emission at 10 minutes ([4]; Luminol 0 µmoles): 54 | Light emission at 10 minutes ([4]; Luminol 0.00125 µmoles): 145 | Light emission at 10 minutes ([4]; Luminol 0.0125 µmoles): 620 | Light emission at 10 minutes ([4]; Luminol 0.125 µmoles): 5,161 | Light emission at 10 minutes ([4]; Luminol 1.25 µmoles): 55,873 | Light emission at 10 minutes ([4]; Luminol 12.5 µmoles): 358,184 | Light emission at 10 minutes ([4]; Luminol 125 µmoles): 834,089

Molecule: OB(O)c1ccccc1 [Compound 5004, phenylboronic acid]
Signal (no HRP) (HRP Type VIA [5]; 5µl of 1mg/ml compound): 5,601 | Signal (with HRP) (HRP Type VIA [5]; 5µl of 1mg/ml compound): 54,554 | Signal: Background ratio (HRP Type VIA [5]; 5µl of 1mg/ml compound): 9.7

Molecule: butaneborinic acid [Compound 5005]
Signal (no HRP) (HRP Type VIA [5]; 40µl of 1mg/ml compound): 54,389 | Signal (with HRP) (HRP Type VIA [5]; 40µl of 1mg/ml compound): 65,197 | Signal: Background ratio (HRP Type VIA [5]; 40µl of 1mg/ml compound): 1.2
